Test results reported in patent US4353923A, “Pharmaceutical composition containing a benzofurancarboxamide derivative as the active ingredient” (Kyowa Hakko Kogyo Co., Ltd., priority 1980, dated 1982).

Experiments:
[1] = in vivo; details: mouse, po, mice, deaths counted for 7 days
Protocol: In this example, 3-7 male dd mice weighing 20±1 g were used as one group. Each drug was suspended in a 0.3% CMC solution and orally administered. After the administration, number of dead animals was counted for 7 days to determine LD50 value. As the reference drugs, mepirizole and benzydamine hydrochloride were dissolved in water and orally administered. The drugs and the reference drugs were also administered in the same manner as above in Examples 2-5.

[2] = tested on: male dd mice; test: Muscle relaxant activity: slant test; format: in vivo; details: 5 mice per group
Protocol: (§1) In this example, 5 male dd mice weighing 20±1 g were used as one group. Prior to the experiments, mice were placed on the rod having a diameter of 3 cm and rotating at 5 r.p.m. in the reverse direction of the rotation. […] The drugs were orally administered and the muscle relaxant activity with the passage of time was examined by the following tests.
Slant test: Each mouse was placed on a wire net inclined at an angle of 45° to observe whether it falls or not.
(§2) In each test, the drug was considered to have a muscle relaxant activity when the mouse fell.

[3] = tested on: male dd mice; test: Muscle relaxant activity: rotating rod test; format: in vivo; details: 5 mice per group
Protocol: as §1
Rotating rod test: The same mouse was placed on the rotating rod to observe whether it falls or not within 2 minutes.
as §2

[4] = tested on: male dd mice; test: Muscle relaxant activity: traction test; format: in vivo; details: 5 mice per group
From the text: as §1
Traction test: Forefeet of the same mouse were placed on a wire to observe whether it falls or not.
as §2

[5] = tested on: male dd mice; test: Anticonvulsant activity: maximal electroshock convulsion test; format: in vivo; details: Mus musculus, po, 1 h, 60 min after administration, read-out: Maximal electroshock convulsion test, inhibition ratio; for responders at 25 mg/kg: 25 mg/kg p.o.; for responders at 50 mg/kg: 50 mg/kg p.o.; for responders at 75 mg/kg: 75 mg/kg p.o.; for responders at 100 mg/kg: 100 mg/kg p.o.
From the text: Anticonvulsant activity was examined according to maximal electroshock convulsion test.
In this experiment, 10 male dd mice weighing 23±1 g were used as one group. Each drug was orally administered to the animals. Sixty minutes after the administration, an electric current (2000 V, 50 mA) was applied to both eyes of the mouse for 0.2 second. Drug activity was judged according to whether tonic extensor seizures were observed or not.

[6] = tested on: male dd mice; test: Analgesic activity: acetic acid writhing; format: in vivo; details: Mus musculus, po, 1 h, acetic acid i.p. after 60 min, read-out: Inhibition ratio (writhes, vs control); for inhibition in vivo at 50 mg/kg: 50 mg/kg p.o.; for inhibition in vivo at 150 mg/kg: 150 mg/kg p.o.
Protocol: In this experiment, 10 male dd mice weighing 20±1 g were used as one group for examination of analgesic activity. Sixty minutes after oral administration of each drug to each animal, 0.2 ml of a 0.7% acetic acid solution was intraperitoneally administered to the animal. Starting 10 minutes after the administration of acetic acid, the number of writhes occurred in 10 minutes was counted. Average number of writhes and inhibition ratio in comparison with control group were calculated.

[7] = tested on: male Wistar rats; test: Anti-inflammatory activity: carrageenin edema method; format: in vivo; details: Rattus norvegicus, po, 3 hours after carrageenin, read-out: Inhibition ratio (paw swelling, vs control); for inhibition in vivo at 150 mg/kg: 150 mg/kg p.o.
Protocol: In this experiment, 5 male Wistar rats weighing 140±10 g were used as one group. Sixty minutes after oral administration of each drug to each animal, 0.1 ml of a 1% carrageenin solution as a phlogistic agent was injected into the plantar surface of the right hind paw of the animal to induce inflammation. The volume of the paw was measured before and 3 hours after the injection of the phlogistic agent. Swelling ratio and inhibition ratio in comparison with control group were calculated.

SMILES: Cc1c(C(=O)N(C)C)oc2c(Cl)cccc12 [Compound (C), 7-chloro-N,N,3-trimethylbenzo[b]furan-2-carboxamide]
- LD50 at 168 h [1]: > 1000 mg/kg
- Number of dropped mice, slant test ([2]; 50 mg/kg p.o., 1 hr): 5 mice
- Number of dropped mice, slant test ([2]; 50 mg/kg p.o., 2 hr): 4 mice
- Number of dropped mice, slant test ([2]; 50 mg/kg p.o., 3 hr): 1 mice
- Number of dropped mice, slant test ([2]; 100 mg/kg p.o., 1 hr): 5 mice
- Number of dropped mice, slant test ([2]; 100 mg/kg p.o., 2 hr): 5 mice
- Number of dropped mice, slant test ([2]; 100 mg/kg p.o., 3 hr): 5 mice
- Number of dropped mice, rotating rod test ([3]; 25 mg/kg p.o., 1 hr): 3 mice
- Number of dropped mice, rotating rod test ([3]; 25 mg/kg p.o., 2 hr): 1 mice
- Number of dropped mice, rotating rod test ([3]; 25 mg/kg p.o., 3 hr): 0 mice
- Number of dropped mice, rotating rod test ([3]; 50 mg/kg p.o., 1 hr): 5 mice
- Number of dropped mice, rotating rod test ([3]; 50 mg/kg p.o., 2 hr): 5 mice
- Number of dropped mice, rotating rod test ([3]; 50 mg/kg p.o., 3 hr): 2 mice
- Number of dropped mice, rotating rod test ([3]; 100 mg/kg p.o., 1 hr): 5 mice
- Number of dropped mice, rotating rod test ([3]; 100 mg/kg p.o., 2 hr): 5 mice
- Number of dropped mice, rotating rod test ([3]; 100 mg/kg p.o., 3 hr): 5 mice
- Number of dropped mice, traction test ([4]; 25 mg/kg p.o., 1 hr): 0 mice
- Number of dropped mice, traction test ([4]; 25 mg/kg p.o., 2 hr): 0 mice
- Number of dropped mice, traction test ([4]; 25 mg/kg p.o., 3 hr): 0 mice
- Number of dropped mice, traction test ([4]; 50 mg/kg p.o., 1 hr): 5 mice
- Number of dropped mice, traction test ([4]; 50 mg/kg p.o., 2 hr): 4 mice
- Number of dropped mice, traction test ([4]; 50 mg/kg p.o., 3 hr): 1 mice
- Number of dropped mice, traction test ([4]; 100 mg/kg p.o., 1 hr): 5 mice
- Number of dropped mice, traction test ([4]; 100 mg/kg p.o., 2 hr): 5 mice
- Number of dropped mice, traction test ([4]; 100 mg/kg p.o., 3 hr): 5 mice
- responders at 25 mg/kg [5]: 40%
- responders at 50 mg/kg [5]: 66.7%
- responders at 75 mg/kg [5]: 80%
- responders at 100 mg/kg [5]: 100%
- inhibition in vivo at 50 mg/kg [6]: 85.3%
- inhibition in vivo at 150 mg/kg [6]: 100%
- inhibition in vivo at 150 mg/kg [7]: 35.1%
- inhibition in vivo at 300 mg/kg ([7]; 300 mg/kg p.o.): 57.8%

SMILES: Cc1ccc2oc(C(=O)N(C)C)c(C)c2c1 [Compound (E), N,N,3,5-Tetramethylbenzo-[b]furan-2-carboxamide]
- LD50 at 168 h [1]: > 1000 mg/kg
- Number of dropped mice, slant test ([2]; 150 mg/kg p.o., 1 hr): 1 mice
- Number of dropped mice, slant test ([2]; 150 mg/kg p.o., 2 hr): 0 mice
- Number of dropped mice, slant test ([2]; 150 mg/kg p.o., 3 hr): 0 mice
- Number of dropped mice, slant test ([2]; 300 mg/kg p.o., 1 hr): 3 mice
- Number of dropped mice, slant test ([2]; 300 mg/kg p.o., 2 hr): 2 mice
- Number of dropped mice, slant test ([2]; 300 mg/kg p.o., 3 hr): 1 mice
- Number of dropped mice, rotating rod test ([3]; 150 mg/kg p.o., 1 hr): 1 mice
- Number of dropped mice, rotating rod test ([3]; 150 mg/kg p.o., 2 hr): 0 mice
- Number of dropped mice, rotating rod test ([3]; 150 mg/kg p.o., 3 hr): 0 mice
- Number of dropped mice, rotating rod test ([3]; 300 mg/kg p.o., 1 hr): 4 mice
- Number of dropped mice, rotating rod test ([3]; 300 mg/kg p.o., 2 hr): 2 mice
- Number of dropped mice, rotating rod test ([3]; 300 mg/kg p.o., 3 hr): 2 mice
- Number of dropped mice, traction test ([4]; 150 mg/kg p.o., 1 hr): 0 mice
- Number of dropped mice, traction test ([4]; 150 mg/kg p.o., 2 hr): 0 mice
- Number of dropped mice, traction test ([4]; 150 mg/kg p.o., 3 hr): 0 mice
- Number of dropped mice, traction test ([4]; 300 mg/kg p.o., 1 hr): 3 mice
- Number of dropped mice, traction test ([4]; 300 mg/kg p.o., 2 hr): 1 mice
- Number of dropped mice, traction test ([4]; 300 mg/kg p.o., 3 hr): 1 mice
- responders at 150 mg/kg ([5]; 150 mg/kg p.o.): 10%
- responders at 300 mg/kg ([5]; 300 mg/kg p.o.): 57.1%
- inhibition in vivo at 150 mg/kg [6]: 22.6%
- inhibition in vivo at 150 mg/kg [7]: 14.7%

SMILES: Cc1c(C(=O)N(C)C)oc2cc(Cl)ccc12 [Compound (B), 6-Chloro-N,N,3-trimethyl-benzo[b]furan-2-carboxamide]
- LD50 at 168 h [1]: 500 to 1000 mg/kg
- Number of dropped mice, slant test ([2]; 300 mg/kg p.o., 1 hr): 5 mice
- Number of dropped mice, slant test ([2]; 300 mg/kg p.o., 2 hr): 5 mice
- Number of dropped mice, slant test ([2]; 300 mg/kg p.o., 3 hr): 5 mice
- Number of dropped mice, rotating rod test ([3]; 75 mg/kg p.o., 1 hr): 5 mice
- Number of dropped mice, rotating rod test ([3]; 75 mg/kg p.o., 2 hr): 4 mice
- Number of dropped mice, rotating rod test ([3]; 75 mg/kg p.o., 3 hr): 4 mice
- Number of dropped mice, rotating rod test ([3]; 150 mg/kg p.o., 1 hr): 5 mice
- Number of dropped mice, rotating rod test ([3]; 150 mg/kg p.o., 2 hr): 5 mice
- Number of dropped mice, rotating rod test ([3]; 150 mg/kg p.o., 3 hr): 5 mice
- Number of dropped mice, traction test ([4]; 75 mg/kg p.o., 1 hr): 3 mice
- Number of dropped mice, traction test ([4]; 75 mg/kg p.o., 2 hr): 4 mice
- Number of dropped mice, traction test ([4]; 75 mg/kg p.o., 3 hr): 2 mice
- Number of dropped mice, traction test ([4]; 150 mg/kg p.o., 1 hr): 5 mice
- Number of dropped mice, traction test ([4]; 150 mg/kg p.o., 2 hr): 5 mice
- Number of dropped mice, traction test ([4]; 150 mg/kg p.o., 3 hr): 5 mice
- responders at 25 mg/kg [5]: 0%
- responders at 50 mg/kg [5]: 40%
- responders at 75 mg/kg [5]: 60%
- inhibition in vivo at 50 mg/kg [6]: 34.9%
- inhibition in vivo at 150 mg/kg [6]: 95.4%
- inhibition in vivo at 150 mg/kg [7]: 39.8%

SMILES: Cc1c(C(=O)N(C)C)oc2ccc(F)cc12 [Compound (D), 5-Fluoro-N,N,3-trimethyl-benzo[b]furan-2-carboxamide]
- LD50 at 168 h [1]: 700 to 1000 mg/kg
- Number of dropped mice, slant test ([2]; 150 mg/kg p.o., 1 hr): 4 mice
- Number of dropped mice, slant test ([2]; 150 mg/kg p.o., 2 hr): 4 mice
- Number of dropped mice, slant test ([2]; 150 mg/kg p.o., 3 hr): 1 mice
- Number of dropped mice, rotating rod test ([3]; 50 mg/kg p.o., 1 hr): 0 mice
- Number of dropped mice, rotating rod test ([3]; 50 mg/kg p.o., 2 hr): 0 mice
- Number of dropped mice, rotating rod test ([3]; 50 mg/kg p.o., 3 hr): 0 mice
- Number of dropped mice, rotating rod test ([3]; 75 mg/kg p.o., 1 hr): 3 mice
- Number of dropped mice, rotating rod test ([3]; 75 mg/kg p.o., 2 hr): 1 mice
- Number of dropped mice, rotating rod test ([3]; 75 mg/kg p.o., 3 hr): 0 mice
- Number of dropped mice, rotating rod test ([3]; 100 mg/kg p.o., 1 hr): 5 mice
- Number of dropped mice, rotating rod test ([3]; 100 mg/kg p.o., 2 hr): 3 mice
- Number of dropped mice, rotating rod test ([3]; 100 mg/kg p.o., 3 hr): 1 mice
- Number of dropped mice, rotating rod test ([3]; 150 mg/kg p.o., 1 hr): 5 mice
- Number of dropped mice, rotating rod test ([3]; 150 mg/kg p.o., 2 hr): 5 mice
- Number of dropped mice, rotating rod test ([3]; 150 mg/kg p.o., 3 hr): 3 mice
- Number of dropped mice, traction test ([4]; 50 mg/kg p.o., 1 hr): 0 mice
- Number of dropped mice, traction test ([4]; 50 mg/kg p.o., 2 hr): 0 mice
- Number of dropped mice, traction test ([4]; 50 mg/kg p.o., 3 hr): 0 mice
- Number of dropped mice, traction test ([4]; 75 mg/kg p.o., 1 hr): 2 mice
- Number of dropped mice, traction test ([4]; 75 mg/kg p.o., 2 hr): 1 mice
- Number of dropped mice, traction test ([4]; 75 mg/kg p.o., 3 hr): 0 mice
- Number of dropped mice, traction test ([4]; 100 mg/kg p.o., 1 hr): 2 mice
- Number of dropped mice, traction test ([4]; 100 mg/kg p.o., 2 hr): 1 mice
- Number of dropped mice, traction test ([4]; 100 mg/kg p.o., 3 hr): 0 mice
- Number of dropped mice, traction test ([4]; 150 mg/kg p.o., 1 hr): 4 mice
- Number of dropped mice, traction test ([4]; 150 mg/kg p.o., 2 hr): 3 mice
- Number of dropped mice, traction test ([4]; 150 mg/kg p.o., 3 hr): 2 mice
- responders at 50 mg/kg [5]: 10%
- responders at 75 mg/kg [5]: 40%
- responders at 100 mg/kg [5]: 90%
- inhibition in vivo at 50 mg/kg [6]: 44.2%
- inhibition in vivo at 150 mg/kg [6]: 95.4%
- inhibition in vivo at 150 mg/kg [7]: 34%
